Assay results as given in patent US20130274338A1, “PHARMACEUTICAL COMPOSITIONS COMPRISING DGLA, 15-OHEPA, AND/OR 15-HETRE AND METHODS OF REDUCING SEBUM PRODUCTION USING SAME” (priority 2012, published 2013).

System: P. acnes
Assay: Agar dilution method, growth of P. acnes and MIC, single compounds
Assay type: cell-based, Propionibacterium acnes
Parameters: key to Growth Index Plate 1 / Growth Index Plate 2 / Growth Index Plate 3 / Growth Index Avg: +++: confluent growth (comparable to control); ++: less confluent growth; +: marked reduction in growth to multiple tiny, single colonies; −: no growth present
Settings: for MIC: Cutibacterium acnes, read-out: MIC (mg/mL) as per P-11-0007 or P-11-0008 Addendum A
Protocol: Several compounds including fatty acids such as DGLA, 15-OHEPA, and 15-HETrE were tested to determine their capacity to inhibit the growth of P. acnes. In an exemplary method, an agar dilution method was used to determine the minimum inhibitory concentration (MIC) of each tested compound. Briefly, the agar dilution method involved preparing a series of concentrations of each compound (e.g., nicotinamide, benzoyl peroxide, adapalene, metronidazole, DGLA, 15-OHEPA, and 15-HETrE) in a Reinforced Clostridial Agar (RCA) media that facilitates growth of P. acnes under anaerobic conditions. An inoculum of P. acnes was prepared by incubation of P. acnes for approximately seven days at 35-37° C. to achieve a ≧1.0 OD600 inoculum of P. acnes in RCM broth. A portion of this inoculum was then added to the surface of each plate as a 10 μL spot and incubated at 35-37° C. for 72 hours or more. Growth of P. acnes was then observed and compared to control plates in which no compound has been added, and positive inhibition plates prepared with erythromycin. […] The growth of P. acnes in the presence of nicotinamide, benzoyl peroxide, adapalene, metronidazole, DGLA, 15-OHEPA, and 15-HETrE was determined with varying concentrations of the compound (see, Table 2). Next, the MIC was determined as the concentration at which a marked reduction (+) occurs in the appearance of growth on the test plate (as per Clinical and Laboratory Standards Institute M11-A7).

[1] = compound alone, MIC = concentration with marked reduction (+) of growth

COc1ccc(-c2ccc3cc(C(=O)O)ccc3c2)cc1C12CC3CC(CC(C3)C1)C2 [Adapalene, 6-[3-(1-adamantyl)-4-methoxyphenyl]-2-naphthoic acid]
++: Growth Index Avg (compound at 0.6 mg/mL) | Growth Index Plate 1 (compound at 0.6 mg/mL) | Growth Index Plate 2 (compound at 0.6 mg/mL) | Growth Index Avg (compound at 0.8 mg/mL) | Growth Index Plate 1 (compound at 0.8 mg/mL) | Growth Index Plate 2 (compound at 0.8 mg/mL) | Growth Index Plate 3 (compound at 0.8 mg/mL)
> 0.8 mg/mL: MIC [1] | MIC (mg/mL) as per P-11-0007 or P-11-0008 Addendum A [1]
+++: Growth Index Avg (compound at 0.2 mg/mL) | Growth Index Plate 1 (compound at 0.2 mg/mL) | Growth Index Plate 2 (compound at 0.2 mg/mL) | Growth Index Plate 3 (compound at 0.2 mg/mL) | Growth Index Avg (compound at 0.4 mg/mL) | Growth Index Plate 1 (compound at 0.4 mg/mL) | Growth Index Plate 2 (compound at 0.4 mg/mL) | Growth Index Plate 3 (compound at 0.4 mg/mL) | Growth Index Plate 3 (compound at 0.6 mg/mL)

O=C(OOC(=O)c1ccccc1)c1ccccc1 [Benzoyl Peroxide]
0.6 to 0.8 mg/mL: MIC [1]
+++: Growth Index Avg (compound at 0.2 mg/mL) | Growth Index Plate 1 (compound at 0.2 mg/mL) | Growth Index Plate 2 (compound at 0.2 mg/mL) | Growth Index Plate 3 (compound at 0.2 mg/mL) | Growth Index Avg (compound at 0.4 mg/mL) | Growth Index Plate 1 (compound at 0.4 mg/mL) | Growth Index Plate 2 (compound at 0.4 mg/mL) | Growth Index Plate 3 (compound at 0.4 mg/mL) | Growth Index Plate 2 (compound at 0.6 mg/mL)
++: Growth Index Avg (compound at 0.6 mg/mL) | Growth Index Plate 1 (compound at 0.6 mg/mL) | Growth Index Plate 3 (compound at 0.6 mg/mL)
+: Growth Index Avg (compound at 0.8 mg/mL) | Growth Index Plate 1 (compound at 0.8 mg/mL) | Growth Index Plate 2 (compound at 0.8 mg/mL) | Growth Index Plate 3 (compound at 0.8 mg/mL)
−: Growth Index Avg (compound at 1.0 mg/mL) | Growth Index Plate 1 (compound at 1.0 mg/mL) | Growth Index Plate 2 (compound at 1.0 mg/mL) | Growth Index Plate 3 (compound at 1.0 mg/mL)

Cc1ncc([N+](=O)[O-])n1CCO [Metronidazole]
+++: Growth Index Avg (compound at 0.2 mg/mL) | Growth Index Plate 1 (compound at 0.2 mg/mL) | Growth Index Plate 2 (compound at 0.2 mg/mL) | Growth Index Plate 3 (compound at 0.2 mg/mL) | Growth Index Avg (compound at 0.4 mg/mL) | Growth Index Plate 1 (compound at 0.4 mg/mL) | Growth Index Plate 2 (compound at 0.4 mg/mL) | Growth Index Plate 3 (compound at 0.4 mg/mL) | Growth Index Avg (compound at 0.6 mg/mL) | Growth Index Plate 1 (compound at 0.6 mg/mL) | Growth Index Plate 2 (compound at 0.6 mg/mL) | Growth Index Plate 3 (compound at 0.6 mg/mL) | Growth Index Avg (compound at 0.8 mg/mL) | Growth Index Plate 1 (compound at 0.8 mg/mL) | Growth Index Plate 2 (compound at 0.8 mg/mL) | Growth Index Plate 3 (compound at 0.8 mg/mL) | Growth Index Avg (compound at 1.0 mg/mL) | Growth Index Plate 1 (compound at 1.0 mg/mL) | Growth Index Plate 3 (compound at 1.0 mg/mL)
++: Growth Index Plate 2 (compound at 1.0 mg/mL)
> 1 mg/mL: MIC [1]

NC(=O)c1cccnc1 [Nicotinamide]
−: Growth Index Plate 1 (compound at 15 mg/mL) | Growth Index Avg (compound at 25 mg/mL) | Growth Index Plate 1 (compound at 25 mg/mL) | Growth Index Plate 2 (compound at 25 mg/mL) | Growth Index Plate 3 (compound at 25 mg/mL)
+++: Growth Index Avg (compound at 1 mg/mL) | Growth Index Plate 1 (compound at 1 mg/mL) | Growth Index Plate 2 (compound at 1 mg/mL) | Growth Index Plate 3 (compound at 1 mg/mL) | Growth Index Avg (compound at 5 mg/mL) | Growth Index Plate 1 (compound at 5 mg/mL) | Growth Index Plate 2 (compound at 5 mg/mL) | Growth Index Plate 3 (compound at 5 mg/mL)
+: Growth Index Avg (compound at 15 mg/mL) | Growth Index Plate 2 (compound at 15 mg/mL) | Growth Index Plate 3 (compound at 15 mg/mL)
10 to 15 mg/mL: MIC [1]
++: Growth Index Avg (compound at 10 mg/mL) | Growth Index Plate 1 (compound at 10 mg/mL) | Growth Index Plate 2 (compound at 10 mg/mL) | Growth Index Plate 3 (compound at 10 mg/mL)
